In assay [1] the target is T1, DHPS (Homo sapiens, UniProt P49366).
T1 construct: host or cells: E. coli BL21 (DE3)
T1 sequence (P49366 1-369): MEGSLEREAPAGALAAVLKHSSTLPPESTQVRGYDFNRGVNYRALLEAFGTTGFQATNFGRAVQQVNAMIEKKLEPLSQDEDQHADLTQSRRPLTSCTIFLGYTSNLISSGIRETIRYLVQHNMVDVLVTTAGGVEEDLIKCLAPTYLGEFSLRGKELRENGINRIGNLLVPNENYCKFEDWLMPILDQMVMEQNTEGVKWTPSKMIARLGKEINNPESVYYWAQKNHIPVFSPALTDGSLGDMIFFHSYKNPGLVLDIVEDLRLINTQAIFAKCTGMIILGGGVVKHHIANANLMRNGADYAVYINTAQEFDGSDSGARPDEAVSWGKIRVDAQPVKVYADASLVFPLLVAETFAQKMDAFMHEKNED
Kind of assay: Hyp'Assay: cell-free eIF5A hypusination in 96-well plates (recombinant eIF5A, DHPS, DOHH; anti-hypusine antibody Hpu24), substance present in the DHPS step. The format is biochemical. The settings on record: for hypusination signal, Mean (quantification from Figure 3B): control 100,0; for hypusination signal, Mean (quantification from Figure 5A): control 98,5. The method, then: The principle of the Hyp’Assay (Fig 2A) is to perform eIF5A hypusination reaction in 96-well plates, allow eIF5A to adsorb to the plate, incubate with an anti-hypusine antibody and a secondary antibody conjugated to HRP and reveal hypusination using TMB as a substrate.
(§1) […] Then 10 μL containing 1 μg of DOHH with 10 μM Fe^2+ (H8FeN2O8S2^. 6H2O) were added. After 1 h proteins were analyzed by Western Blot using antibodies toward DHPS, DOHH, Hypusine, and eIF5A.
(§2) The cell-free reaction described in 4.4 is performed in triplicates in a 96-wells plate (MaxiSorp, ThermoFisher) in the presence of 3 μg of eIF5A, 2 μg of DHPS, and 2 μg of DOHH by well. The reaction product, hypusinated eIF5A, is adsorbed onto the plate overnight at 4°C. The plate is washed (100 μL/well) thrice with PBS-T (PBS– 0.05% Tween20), then saturated with 1% non-fat dry milk in PBS-T for 2 h at room temperature. The plate is washed thrice with PBS-T and incubated overnight at 4°C with the anti-hypusine antibody (1:2000 in saturation buffer, 50 μL/well). The next day and after 5 washes with PBS-T, HRP-coupled anti-rabbit secondary antibody diluted 1:5000 in saturation buffer (50 μL/well) is added for 2 h at room temperature.

A further assay concerns the target T2, DOHH (Homo sapiens, UniProt Q9BU89).
T2 construct: pelB leader (N); host or cells: E. coli BL21 (DE3)
T2 sequence (Q9BU89 1-302): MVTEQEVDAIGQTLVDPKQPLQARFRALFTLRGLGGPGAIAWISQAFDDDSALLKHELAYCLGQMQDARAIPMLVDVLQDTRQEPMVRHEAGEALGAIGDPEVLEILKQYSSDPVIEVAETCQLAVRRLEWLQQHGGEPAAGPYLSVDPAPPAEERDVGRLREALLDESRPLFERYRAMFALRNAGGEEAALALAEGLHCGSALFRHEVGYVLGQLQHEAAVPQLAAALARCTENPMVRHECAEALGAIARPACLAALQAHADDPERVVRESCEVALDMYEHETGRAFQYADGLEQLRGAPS
Kind of assay: Hyp'Assay, substance added after the deoxyhypusination reaction (DOHH step). The settings on record: for hypusination signal, Mean (quantification from Figure 3C): control 100,0. The assay is classed as biochemical. The method, then: We then tested the ability of DOHH inhibitors to inhibit eIF5A hypusination using the Hyp’Assay. During the Hyp’Assay, DOHH inhibitors were added after the deoxyhypusination reaction.
To address this issue, we compared the ability of GC7 to inhibit DHPS or DOHH by adding GC7 during the first step of the Hyp’Assay; when DHPS mediates the deoxyhypusination reaction (Fig 2A), or only during the second step, when DOHH hydroxylate deoxyhypusinated eIF5A. […] When finding new hypusination inhibitors adding them during the first or the second step of the Hyp’Assay will allow us to determine if the inhibition affects DHPS or DOHH. Another way to discriminate between DHPS or DOHH inhibitors would be to use Hpu98, an antibody that recognized both hypusinated and deoxyhypusinated eIF5A, instead of Hpu24, which is specific for hypusinated eIF5A [18]. […] We performed a new Hyp’Assay by omitting DOHH in the reaction mix and using the Hpu98 antibody. First, we performed a dose response experiment with spermidine at pH: 8.0 and 9.0 (Fig 3E). […] We also tested the ability of GC7 (Fig 3F) and CPX or EDTA (Fig 3G) to inhibit DHPS.
as §1, §2

In assay [2] the target is T1, DHPS. In words: Hyp'Assay without DOHH: deoxyhypusination of eIF5A revealed with Hpu98 antibody. The settings on record: 5 μM spermidine; CTRL 100,0; inhibitor concentration not given. The format is biochemical.
Description: To address this issue, we compared the ability of GC7 to inhibit DHPS or DOHH by adding GC7 during the first step of the Hyp’Assay; when DHPS mediates the deoxyhypusination reaction (Fig 2A), or only during the second step, when DOHH hydroxylate deoxyhypusinated eIF5A. […] This confirms the specificity of GC7 towards DHPS. When finding new hypusination inhibitors adding them during the first or the second step of the Hyp’Assay will allow us to determine if the inhibition affects DHPS or DOHH. Another way to discriminate between DHPS or DOHH inhibitors would be to use Hpu98, an antibody that recognized both hypusinated and deoxyhypusinated eIF5A, instead of Hpu24, which is specific for hypusinated eIF5A [18]. […] We performed a new Hyp’Assay by omitting DOHH in the reaction mix and using the Hpu98 antibody. First, we performed a dose response experiment with spermidine at pH: 8.0 and 9.0 (Fig 3E). The Hyp’Assay allows the detection of deoxyhypusinated eIF5A in a spermidine-dependent manner. Under these conditions, deoxyhypusination was equally efficient at both pH tested. […] We also tested the ability of GC7 (Fig 3F) and CPX or EDTA (Fig 3G) to inhibit DHPS. […] This provided us with another method to distinguish between DHPS and DOHH inhibitors.
as §2

The test system of assay [3] is eIF5A hypusination in MCF7 cells. In words: eIF5A hypusination in intact MCF7 cells, Western blot. The assay is classed as cell-based, human. The settings on record: 40 μM, 24 h, Ctrl 100, 4 experiments. The method, then:
We tested the ability of the GC7 analogs to inhibit hypusination in intact cells. MCF-7 cells (Fig 5B), a classical model of breast cancer cell line, and HT29 cells (Fig 5C), a cell model of colorectal cancer, were treated with 40 μM of GC7, 1, 2, 3, and 4 for 24h. Cells were lysed and analyzed by Western blot. As observed, none of the molecules modified eIF5A expression. […] GC7 analogs inhibited hypusination from 35 to 55%.
The human breast cancer cell line MCF7 (HTB-22 ATCC) and colorectal adenocarcinoma HT29 (HTB-38 ATCC) were cultured in DMEM (Gibco) supplemented with 10% FBS (Dutscher), 10 U/mL penicillin, and […] streptomycin. 1 mM of aminoguanidine was added to the medium to inhibit the degradation of GC7 and polyamines by amine oxidase from the serum and the production of reactive oxygen species. Cells were maintained at 37°C, 5% CO2 in a humid atmosphere.
After treatment, cells were washed with ice-cold PBS and lysed in RIPA Buffer (50 mM Tris pH 7.5, 150 mM NaCl, 0.1% SDS, 0.5% Na Deoxycholate, 5 mM NaF, 2.5 mM Na4P2O7, 1% NP4O) containing a protease inhibitor cocktail (complete Roche). 10 μg of proteins were separated by SDS PAGE and transferred to a PVDF membrane (Immobilon-P Millipore). The membranes were probed with the appropriate primary antibody that was detected by horseradish peroxidase-conjugated secondary antibody (Jackson Immunoresearch) and visualized by chemiluminescence (ECL Amersham RPN 3244) using a Fuji LAS-4000 imager. ImageJ® software was used to quantify band intensity and the ratios of proteins of interest were normalized to a loading control. Full-length Western blots are provided in the supplementary data (S19, S20 Figs).
(Immunoblotting shows a protein as a band on a membrane.)

Where [4] appears, read: concentration 1 (no unit on page; Fig 3B dose-response 0 to 1 mM).
The mark [5] stands for this setting: concentration 10 (no unit on page; Fig 3B dose-response 0 to 1 mM).
Setting [6] is: concentration 100 (no unit on page; Fig 3B dose-response 0 to 1 mM).
The mark [7] stands for this setting: concentration 1000 (no unit on page; Fig 3B dose-response 0 to 1 mM).
The mark [8] stands for this setting: concentration 1 (no unit on page; Fig 3C dose-response 0 to 100 μM).
Setting [9] is: concentration 10 (no unit on page; Fig 3C dose-response 0 to 100 μM).
Where [10] appears, read: concentration 100 (no unit on page; Fig 3C dose-response 0 to 100 μM).

Regarding `CCNCCCNCCCNCCCNCC` [BENSPM, N1,N11-diethylnorspermine], the decrease in hypusination on DHPS [1] (at 100 μM) is 12%. Further, the inhibition of hypusination at DHPS [1] (at 1 mM) worked out at 43%. Moreover, the “hypusination signal, Mean (quantification from Figure 3B)” value is 97,3 at DHPS [1] (setting [4]), 101,9 on DHPS [1] (setting [5]), 88,5 on DHPS [1] (setting [6]) and 42,9 on DHPS [1] (setting [7]).
Take `Cc1cc(C2CCCCC2)n(O)c(=O)c1` [CPX, ciclopirox]: the entries for the “hypusination signal, Mean (quantification from Figure 3C)” value at DOHH (setting [8]), at DOHH (setting [9]) and at DOHH (setting [10]) were 97,78, 85,18 and 55,02, respectively. For the same compound, the maximal inhibition on DOHH (dose-response 0 to 100 μM) was 50%. At DHPS [2], the “Relative deoxyhypusination of eIF5A, Mean (quantification from Figure 3F, 3G)” value is listed as 101,2 a.u.
Consider `CC(=O)N(O)CCCCCNC(=O)CCC(=O)N(O)CCCCCNC(=O)CCC(=O)N(O)CCCCCN` [DFX, deferoxamine], for which the results for the “hypusination signal, Mean (quantification from Figure 3C)” value on DOHH (setting [8]), at DOHH (setting [9]) and on DOHH (setting [10]) were 28,29, 58,42 and 34,21, respectively.
For the compound `C[S+](C)[O-]` [DMSO], the inhibition of hypusination on DHPS [1] (10% DMSO of the total reaction mixture) is recorded as 33%. Besides, the “effect on hypusination of eIF5A” value at DHPS [1] (standard concentrations of DMSO (less than 10%)) is on record as “not affected”.
At DOHH (at 100 μM EDTA), `O=C(O)CN(CCN(CC(=O)O)CC(=O)O)CC(=O)O` [EDTA] returned a maximal inhibition of 80%. At DHPS [2], the “Relative deoxyhypusination of eIF5A, Mean (quantification from Figure 3F, 3G)” value is on record as 97,63 a.u.
By inhibition is commonly meant the share of the control response that was lost under treatment. As to `Nc1nc(=O)c2nc(CNc3ccc(C(=O)N[C@@H](CCC(=O)O)C(=O)O)cc3)cnc2[nH]1` [Folate, folic acid], the inhibition at 1 µM at DOHH (at 1 μM) amounted to 50%. In addition, the “hypusination signal, Mean (quantification from Figure 3C)” value is on record as 56,38 on DOHH (setting [8]), 57,32 on DOHH (setting [9]) and 65,33 on DOHH (setting [10]).
As to `N=C(N)NCCCCO` [compound 1, 4-hydroxybutylguanidine], at DHPS [1] (5 μM spermidine), the “concentration from which inhibition of hypusination was detectable” value came to 1 µM. The “hypusination signal, Mean (quantification from Figure 5A)” value on DHPS [1] (concentration 1 (no unit on page; Fig 5A 0 to 1 mM), 5 μM spermidine) is given as 70,7; at DHPS [1] (concentration 10 (no unit on page; Fig 5A 0 to 1 mM), 5 μM spermidine) it was 62,5; on DHPS [1] (concentration 100 (no unit on page; Fig 5A 0 to 1 mM), 5 μM spermidine) it was 61,5; on DHPS [1] (concentration 1000 (no unit on page; Fig 5A 0 to 1 mM), 5 μM spermidine) it was 55,2. In addition, the “hypusinated eIF5A, Western blot quantification, Mean (Figure 5B)” value in assay [3] was determined as 65.
On to `NCCCCN` [putrescine], for which the inhibition at 1000 µM at DHPS [1] (at 1 mM) turned out to be 70%. The “hypusination signal, Mean (quantification from Figure 3B)” value is reported as 111,3 at DHPS [1] (setting [4]), 94,6 at DHPS [1] (setting [5]), 95,3 on DHPS [1] (setting [6]) and 30,5 at DHPS [1] (setting [7]).
With `NCCCNCCCCNCCCN` [spermine], the “hypusination signal, Mean (quantification from Figure 3B)” value at DHPS [1] (setting [4]) is 106,1; at DHPS [1] (setting [5]) it was 114,0; on DHPS [1] (setting [6]), 104,5; on DHPS [1] (setting [7]) it was 111,4. Also, at DHPS [1] (concentrations up to 1 mM), the “effect on eIF5A hypusination” value is reported as “did not affect eIF5A hypusination”. In addition, the “use as alternate DHPS substrate” value on DHPS [1] (dose response compared with spermidine (S3 Fig)) is “can be used as a substrate by DHPS in the Hyp’Assay, although with lower efficiency than spermidine”. The “hypusination signal with the substance as substrate, Mean (quantification from Figure S3)” value at DHPS [1] (substrate concentration 0,01 (mM)) is reported as -0,07; on DHPS [1] (substrate concentration 0,1 (mM)) it was 0,01; on DHPS [1] (substrate concentration 0,0001 (mM)), 0,19; at DHPS [1] (substrate concentration 0,001 (mM)) it was -0,08; on DHPS [1] (substrate concentration 1 (mM)) it was 2,17; on DHPS [1] (substrate concentration 10 (mM)), 21,70. Also, the “hypusination signal with the substance as substrate, Mean (quantification from Figure S3)” value is reported as 39,64 on DHPS [1] (substrate concentration 100 (mM)) and 28,97 at DHPS [1] (substrate concentration 1000 (mM)). Also, the “hypusination signal, Mean (quantification from Figure 3C)” value on DOHH (setting [8]) is recorded as 69,38; on DOHH (setting [9]) it was 59,12; at DOHH (setting [10]), 54,32.

The values above are taken from publication PMC11819603, “Development of a reliable, sensitive, and convenient assay for the discovery of new eIF5A hypusination inhibitors” (PLOS ONE, 2025).
